# Laboratory results reported in ChEMBL document CHEMBL1201862, “PubChem BioAssay data set” (2004).
#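 Grown in 96-well plates, cells were treated for 48 hours with each compound at five concentrations. Insufficient inhibition: endpoint recorded as highest concentration tested. At the GI50, growth is halved.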 Activity calls are given as the source filed them. Cut-off read from the data, not from the text of the source: active = GI50 up to about 1.1 µM and inactive = higher.
# Columns and labels:
# Assay in all cases: NCI-60 cell line screen, 48 h
# [1] = system: OVCAR-3
# [2] = system: SF-268
# [3] = system: MDA-N
# [4] = system: PC-3
# [5] = system: SK-OV-3
# [6] = system: CAKI-1
# [7] = system: HOP-62
# [8] = system: SF-539
# [9] = system: RPMI-8226
# [10] = system: HT-29
# [11] = system: Malme-3M
# [12] = system: EKVX
# [13] = system: CCRF-CEM
# [14] = system: M14
# [15] = system: KM12
# [16] = system: MOLT-4
# [17] = system: SF-295
# [18] = system: U-251
# [19] = system: OVCAR-8
# [20] = system: MCF7
# [21] = system: HCT-15
# [22] = system: K562
# [23] = system: TK-10
# [24] = system: COLO 205
# [25] = system: T47D
# [26] = system: NCI-H23
# [27] = system: 786-0
# [28] = system: MDA-MB-231
# [29] = system: DU-145
# [30] = system: SN12C
# [31] = system: HCT-116
# [32] = system: NCI-H460
# [33] = system: NCI-H522
# [34] = system: Hs-578T
# [35] = system: UO-31
# [36] = system: SNB-19
# [37] = system: UACC-62
# [38] = system: A549
# [39] = system: SW-620
# [40] = system: MDA-MB-435
# [41] = system: NCI-H226
# [42] = system: OVCAR-5
# [43] = system: A498
# [44] = system: HL-60
# [45] = system: NCI/ADR-RES
# [46] = system: SNB-75
# [47] = system: SK-MEL-5
# [48] = system: IGROV-1
# [49] = system: HOP-92
# [50] = system: SK-MEL-28
# [51] = system: SR
# [52] = system: HCC 2998
# [53] = system: RXF 393
# [54] = system: UACC-257
# [55] = system: ACHN
# [56] = system: BT-549
# [57] = system: LOX IMVI
# [58] = system: OVCAR-4
# [59] = system: SK-MEL-2
compound,measurement,setting,value
CC(=O)O[C@H]1C(=O)[C@@]2(C)[C@H]([C@H](OC(=O)c3ccccc3)[C@]3(O)C[C@H](OC(=O)[C@H](O)[C@@H](NC(=O)c4cccc(N=[N+]=[N-])c4)c4ccccc4)C(C)=C1C3(C)C)[C@]1(OC(C)=O)CO[C@@H]1C[C@@H]2O,GI50,[1],< 0.0025 µM (active)
same,GI50,[2],0.0289 µM (active)
same,GI50,[3],< 0.0025 µM (active)
same,GI50,[4],0.0047 µM (active)
same,GI50,[5],0.0122 µM (active)
same,GI50,[6],1.07 µM (active)
same,GI50,[7],0.00813 µM (active)
same,GI50,[8],< 0.0025 µM (active)
same,GI50,[9],< 0.0025 µM (active)
same,GI50,[10],< 0.0025 µM (active)
same,GI50,[11],0.00711 µM (active)
same,GI50,[12],> 7.59 µM (inactive)
same,GI50,[13],0.00331 µM (active)
same,GI50,[14],0.00908 µM (active)
same,GI50,[15],0.0038 µM (active)
same,GI50,[16],0.00453 µM (active)
same,GI50,[17],0.0247 µM (active)
same,GI50,[18],0.00629 µM (active)
same,GI50,[19],0.00798 µM (active)
same,GI50,[20],< 0.0025 µM (active)
same,GI50,[21],0.662 µM
same,GI50,[22],< 0.0025 µM (active)
same,GI50,[23],0.117 µM (active)
same,GI50,[24],0.00301 µM (active)
same,GI50,[25],0.0338 µM (active)
same,GI50,[26],0.00641 µM (active)
same,GI50,[27],0.0179 µM (active)
same,GI50,[28],0.0149 µM (active)
same,GI50,[29],0.0208 µM (active)
same,GI50,[30],0.0164 µM (active)
same,GI50,[31],< 0.0025 µM (active)
same,GI50,[32],0.00859 µM (active)
same,GI50,[33],0.00307 µM (active)
same,GI50,[34],< 0.0025 µM (active)
same,GI50,[35],1.33 µM (inactive)
same,GI50,[36],0.0129 µM (active)
same,GI50,[37],0.00731 µM (active)
same,GI50,[38],0.0108 µM (active)
same,GI50,[39],0.00621 µM (active)
same,GI50,[40],< 0.0025 µM (active)
same,GI50,[41],0.00855 µM (active)
same,GI50,[42],0.00893 µM (active)
same,GI50,[43],0.0408 µM (active)
same,GI50,[44],< 0.0025 µM (active)
same,GI50,[45],8.32 µM (inactive)
same,GI50,[46],0.0173 µM (active)
same,GI50,[47],0.00507 µM (active)
same,GI50,[48],0.00679 µM (active)
same,GI50,[49],0.0109 µM (active)
same,GI50,[50],0.425 µM (active)
same,GI50,[51],< 0.0025 µM (active)
same,GI50,[52],0.0634 µM (active)
same,GI50,[53],0.045 µM (active)
same,GI50,[54],0.00621 µM (active)
same,GI50,[55],0.327 µM (active)
same,GI50,[56],0.0364 µM (active)
same,GI50,[57],0.00789 µM (active)
same,GI50,[58],6.05 µM (inactive)
Clc1ccc(Cc2nc3cc(Cl)c(Cl)cc3n2CC2CCCN3CCCCC23)cc1Cl (configuration not stated),GI50,[1],16 µM (inactive)
same,GI50,[2],3.32 µM (inactive)
same,GI50,[3],4.79 µM (inactive)
same,GI50,[4],4.12 µM (inactive)
same,GI50,[5],1.11 µM (active)
same,GI50,[6],3.46 µM (inactive)
same,GI50,[7],9.14 µM (inactive)
same,GI50,[8],1.98 µM (inactive)
same,GI50,[9],4.13 µM (inactive)
same,GI50,[10],2.43 µM (inactive)
same,GI50,[11],1.79 µM (inactive)
same,GI50,[12],3.28 µM (inactive)
same,GI50,[14],2.01 µM (inactive)
same,GI50,[15],2.19 µM (inactive)
same,GI50,[16],4.34 µM (inactive)
same,GI50,[17],3.37 µM (inactive)
same,GI50,[18],3.86 µM (inactive)
same,GI50,[19],6.32 µM (inactive)
same,GI50,[20],2.38 µM (inactive)
same,GI50,[21],4.76 µM
same,GI50,[22],3.26 µM (inactive)
same,GI50,[23],6.05 µM (inactive)
same,GI50,[24],1.94 µM (inactive)
same,GI50,[25],7.29 µM (inactive)
same,GI50,[27],2.99 µM (inactive)
same,GI50,[28],3.27 µM (inactive)
same,GI50,[29],4.79 µM (inactive)
same,GI50,[30],4.13 µM (inactive)
same,GI50,[31],3.04 µM (inactive)
same,GI50,[32],3.1 µM (inactive)
same,GI50,[33],1.74 µM (inactive)
same,GI50,[34],3.4 µM (inactive)
same,GI50,[35],0.335 µM (active)
same,GI50,[36],2.9 µM (inactive)
same,GI50,[59],6.34 µM (inactive)
same,GI50,[37],2.28 µM (inactive)
same,GI50,[38],4.93 µM (inactive)
same,GI50,[39],1.48 µM (inactive)
same,GI50,[40],3.83 µM (inactive)
same,GI50,[41],7.16 µM (inactive)
same,GI50,[42],3.13 µM (inactive)
same,GI50,[43],8.17 µM (inactive)
same,GI50,[44],2.5 µM (inactive)
same,GI50,[45],4.46 µM (inactive)
same,GI50,[46],4.53 µM (inactive)
same,GI50,[47],1.85 µM (inactive)
same,GI50,[48],3.89 µM (inactive)
same,GI50,[49],5.38 µM (inactive)
same,GI50,[50],2.99 µM (inactive)
same,GI50,[51],2.78 µM (inactive)
same,GI50,[52],1.65 µM (inactive)
same,GI50,[53],7.53 µM (inactive)
same,GI50,[54],2.88 µM (inactive)
same,GI50,[55],4.47 µM (inactive)
same,GI50,[56],8.43 µM (inactive)
same,GI50,[57],2.44 µM (inactive)
same,GI50,[58],3.4 µM (inactive)
CC(=O)CC12NC(=O)N(C)N=C1N(C)C(=O)N(C)C2=O (configuration not stated),GI50,[1],34.8 µM (inactive)
same,GI50,[2],78.2 µM (inactive)
same,GI50,[3],22.3 µM (inactive)
same,GI50,[4],30.8 µM (inactive)
same,GI50,[5],> 100 µM (inactive)
same,GI50,[6],> 100 µM (inactive)
same,GI50,[7],51.6 µM (inactive)
same,GI50,[8],25.7 µM (inactive)
same,GI50,[9],58.1 µM (inactive)
same,GI50,[10],35.9 µM (inactive)
same,GI50,[11],13.4 µM (inactive)
same,GI50,[12],> 100 µM (inactive)
same,GI50,[13],39.2 µM (inactive)
same,GI50,[14],73.5 µM (inactive)
same,GI50,[15],52.8 µM (inactive)
same,GI50,[16],44.8 µM (inactive)
same,GI50,[17],27.4 µM (inactive)
same,GI50,[18],34.4 µM (inactive)
same,GI50,[19],32.1 µM (inactive)
same,GI50,[20],41.8 µM (inactive)
same,GI50,[21],57.7 µM
same,GI50,[22],40.1 µM (inactive)
same,GI50,[23],> 100 µM (inactive)
same,GI50,[24],52.4 µM (inactive)
same,GI50,[25],30.8 µM (inactive)
same,GI50,[26],38.7 µM (inactive)
same,GI50,[27],91 µM (inactive)
same,GI50,[28],43 µM (inactive)
same,GI50,[29],> 100 µM (inactive)
same,GI50,[30],33.1 µM (inactive)
same,GI50,[31],35.7 µM (inactive)
same,GI50,[32],65.9 µM (inactive)
same,GI50,[33],37.7 µM (inactive)
same,GI50,[34],> 100 µM (inactive)
same,GI50,[35],> 100 µM (inactive)
same,GI50,[36],> 10 µM (inactive)
same,GI50,[37],23.9 µM (inactive)
same,GI50,[38],> 100 µM (inactive)
same,GI50,[39],33.9 µM (inactive)
same,GI50,[40],17 µM (inactive)
same,GI50,[41],> 100 µM (inactive)
same,GI50,[42],> 100 µM (inactive)
same,GI50,[43],31.9 µM (inactive)
same,GI50,[44],25.9 µM (inactive)
same,GI50,[45],29.4 µM (inactive)
same,GI50,[46],68.1 µM (inactive)
same,GI50,[48],> 100 µM (inactive)
same,GI50,[49],95.1 µM (inactive)
same,GI50,[50],57.3 µM (inactive)
same,GI50,[51],63.7 µM (inactive)
same,GI50,[52],82.8 µM (inactive)
same,GI50,[53],68.1 µM (inactive)
same,GI50,[54],18.6 µM (inactive)
same,GI50,[55],74.6 µM (inactive)
same,GI50,[56],> 100 µM (inactive)
same,GI50,[57],19.8 µM (inactive)
same,GI50,[58],71.8 µM (inactive)
